According to ChEMBL document CHEMBL1201862, “PubChem BioAssay data set” (2004):
Activity calls are given as the source filed them.

Tests used:
Cytochrome P450 2C9 = Cytochrome P450 2C9 (Homo sapiens, UniProt P11712)
[1] = biological target: T1, Corticotropin-releasing factor receptor 2/Corticotropin-releasing factor-binding protein (Homo sapiens, UniProt P24387+Q13324); assay: activators of CRF receptor 2 with binding protein – uHTS hits, confirmation (AID 602473); format: functional; conditions: read-out: EC50_Mean
T1 sequence (Q13324 whole entry): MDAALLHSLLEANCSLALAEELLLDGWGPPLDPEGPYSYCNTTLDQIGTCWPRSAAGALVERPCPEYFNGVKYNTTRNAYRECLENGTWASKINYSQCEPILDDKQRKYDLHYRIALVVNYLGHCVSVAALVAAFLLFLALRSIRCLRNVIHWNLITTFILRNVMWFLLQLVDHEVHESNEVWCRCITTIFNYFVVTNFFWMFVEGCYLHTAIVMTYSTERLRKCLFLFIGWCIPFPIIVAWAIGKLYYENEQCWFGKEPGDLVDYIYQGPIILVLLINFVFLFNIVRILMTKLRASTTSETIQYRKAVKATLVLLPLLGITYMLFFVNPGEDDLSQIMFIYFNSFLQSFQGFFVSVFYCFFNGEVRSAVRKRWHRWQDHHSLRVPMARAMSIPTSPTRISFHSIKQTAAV
T1 sequence (P24387 whole entry): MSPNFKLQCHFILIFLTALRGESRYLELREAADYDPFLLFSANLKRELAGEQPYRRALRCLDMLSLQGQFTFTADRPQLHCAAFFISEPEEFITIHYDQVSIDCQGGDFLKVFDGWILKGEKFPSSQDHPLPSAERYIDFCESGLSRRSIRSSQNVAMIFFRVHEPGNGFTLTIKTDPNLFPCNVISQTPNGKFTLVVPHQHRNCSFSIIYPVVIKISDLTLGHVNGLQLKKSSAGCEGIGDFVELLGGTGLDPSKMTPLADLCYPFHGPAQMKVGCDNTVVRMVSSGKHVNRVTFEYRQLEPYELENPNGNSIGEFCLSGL

[2] = biological target: T1, Corticotropin-releasing factor receptor 2/Corticotropin-releasing factor-binding protein; assay: Dose Response confirmation of uHTS hits for small molecule antagonists of the CRF-binding protein and CRF-R2 receptor complex.; format: functional; conditions: read-out: IC50_Mean
[3] = CRF-BP/CRF-R2 complex antagonists, dose response, cell-based, uHTS hits, 384-well (AID 651639); format: functional, Homo sapiens; conditions: read-out: IC50_Mean
[4] = biological target: T2, Carboxy-terminal domain RNA polymerase II polypeptide A small phosphatase 1 (Homo sapiens, UniProt Q9GZU7); assay: inhibitors of CTDSP1, concentration-response testing, biochemical assay, absorbance-based, actives from ultra-high-throughput screening (AID 540297); format: functional
T2 sequence (Q9GZU7 whole entry): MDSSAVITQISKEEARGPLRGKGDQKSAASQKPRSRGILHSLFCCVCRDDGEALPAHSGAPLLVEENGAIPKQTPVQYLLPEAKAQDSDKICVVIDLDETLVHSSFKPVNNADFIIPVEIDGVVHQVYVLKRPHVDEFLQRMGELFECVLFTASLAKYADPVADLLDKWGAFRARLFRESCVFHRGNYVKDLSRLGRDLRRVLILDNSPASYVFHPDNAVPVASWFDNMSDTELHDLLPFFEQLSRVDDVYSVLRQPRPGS

[5] = biological target: T3, Short transient receptor potential channel 4 (Mus musculus, UniProt Q9QUQ5); assay: mouse TRPC4 channel activators, dose response, cell-based, HEK293 TRPC4/mu-opioid, Fluo-4 calcium (AID 434937); format: functional
T3 sequence (Q9QUQ5 whole entry): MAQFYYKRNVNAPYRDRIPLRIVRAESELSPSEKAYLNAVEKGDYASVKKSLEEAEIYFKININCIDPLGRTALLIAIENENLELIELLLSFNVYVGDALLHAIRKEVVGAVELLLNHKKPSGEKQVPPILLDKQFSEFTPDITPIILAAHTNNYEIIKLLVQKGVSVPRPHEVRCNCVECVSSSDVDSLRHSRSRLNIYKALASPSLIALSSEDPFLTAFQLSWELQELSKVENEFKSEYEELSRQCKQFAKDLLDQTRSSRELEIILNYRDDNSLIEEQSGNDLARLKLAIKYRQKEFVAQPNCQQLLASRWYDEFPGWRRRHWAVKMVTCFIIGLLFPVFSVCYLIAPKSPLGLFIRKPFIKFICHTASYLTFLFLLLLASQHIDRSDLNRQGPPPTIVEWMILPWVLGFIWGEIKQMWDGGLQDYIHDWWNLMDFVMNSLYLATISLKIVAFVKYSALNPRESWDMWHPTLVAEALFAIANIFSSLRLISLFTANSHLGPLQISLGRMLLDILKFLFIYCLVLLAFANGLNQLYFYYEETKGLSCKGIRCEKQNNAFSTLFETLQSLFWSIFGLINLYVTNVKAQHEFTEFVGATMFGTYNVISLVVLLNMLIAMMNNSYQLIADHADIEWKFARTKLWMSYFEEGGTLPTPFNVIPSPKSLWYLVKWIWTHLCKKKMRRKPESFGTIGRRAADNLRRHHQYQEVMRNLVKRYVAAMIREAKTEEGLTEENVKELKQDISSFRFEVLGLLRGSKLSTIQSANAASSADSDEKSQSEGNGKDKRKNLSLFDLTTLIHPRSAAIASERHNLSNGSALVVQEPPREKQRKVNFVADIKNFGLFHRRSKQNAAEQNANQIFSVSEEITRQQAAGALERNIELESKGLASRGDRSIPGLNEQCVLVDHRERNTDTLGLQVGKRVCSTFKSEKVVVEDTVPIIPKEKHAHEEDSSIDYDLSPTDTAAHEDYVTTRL

HEK293 [6] = assay: NOD1 signaling inhibitors, primary screen, cell-based, luminescence, uHTS (AID 1578); format: functional; conditions: Homo sapiens
[7] = cytotoxicity toward DRD oncogenic fibroblasts, dose response, cell-based, non-viral oncogenic, luminescence (AID 1934); format: functional; conditions: Homo sapiens
BJ [8] = assay: cells; format: functional, cell-based; conditions: Homo sapiens
BJ [9] = assay: cytotoxicity toward BJ-TERT-LT-ST fibroblasts, dose response, cell-based, RAS-independent, luminescence (AID 1935); format: functional; conditions: Homo sapiens;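 further: BJ fibroblasts immortalized with TERT plus LT and ST oncogenes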
HEK293 [10] = assay: cells; format: functional, cell-based; conditions: Homo sapiens
[11] = microbe, parasite or virus in culture; format: functional; conditions: Mycobacterium tuberculosis
BJ [12] = assay: cytotoxicity toward BJ-TERT fibroblasts, dose response, cell-based, RAS-independent, luminescence (AID 1933); format: functional; conditions: Homo sapiens
HEK293 [13] = assay: cells; format: functional, cell-based; conditions: Homo sapiens; remark: listed apart in the source
HEK293 [14] = assay: NOD2 signaling inhibitors in MDP-stimulated cells, cell-based, uHTS, luminescence (AID 2001); format: functional; conditions: Homo sapiens
cells = format: functional, cell-based
[15] = biological target: DNA dC->dU-editing enzyme APOBEC-3G (Homo sapiens, UniProt Q9HC16); assay: Dose Response confirmation of small molecule APOBEC3G DNA Deaminase Inhibitors via a fluorescence-based single-stranded DNA deaminase assay. [Related pubchem assays (depositor defined):AID493012, AID493028]; format: functional
[16] = Shn3 3'UTR reporter inhibitors, dose response, cell-based, Clone20 osteoblasts, firefly luciferase, cherry-picked (AID 624132); format: functional;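 further: firefly luciferase luminescence from reporter carrying the Shn3 3'UTR in osteoblasts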
[17] = control 3'UTR Renilla luciferase suppression, dose response, counter-screen for Shn3 inhibitor project, cell-based, Clone20-Shn3RL, cherry-picked (AID 624133); format: functional
[18] = cytotoxicity toward NIH3T3 fibroblasts, dose response, counter-screen, cell-based, ATP luminescence, mouse fibroblasts (AID 2010); format: functional; conditions: NIH3T3;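 further: cells exposed to compound for about 90 hours before reading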
[19] = A cytotoxicity screen of small molecule inhibitors of the PhoP region in Salmonella typhi identified in the primary screen. [Related pubchem assays: 1850, 1864, 1985 ]; format: functional
[20] = inhibitors of intracellular T. cruzi replication, confirmation, NIH3T3 host cells, beta-gal luminescence (AID 2044); format: functional, cell-based;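 further: intracellular parasites grown in NIH/3T3 mouse fibroblasts as host cells; luminescent beta-galactosidase reporter signal from transgenic T. cruzi replicating inside host cells; inhibitors lower the luminescence signal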
Cytochrome P450 2C19 = Cytochrome P450 2C19 (Homo sapiens, UniProt P33261); assay: Cytochrome panel assay with activity outcomes. Panel member name: p450-cyp2c19 Compounds with AC50 equal or less than 10 uM are considered active; format: functional; conditions: read-out: AC50
[21] = P. falciparum Dd2 growth inhibitors, dose response, SYBR Green, cherry-picked samples (AID 1159567); format: functional, cell-based
Fatty acid synthase [22] = biological target: T4, Fatty acid synthase (Homo sapiens, UniProt P49327); assay: FAS thioesterase domain inhibitors, dose response, biochemical, kinetic fluorescence intensity (AID 624326); format: functional;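 further: rate of fluorescence rise from hydrolysis of a fluorogenic O-methyl fluorescein ester substrate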
Fatty acid synthase [23] = biological target: T4, Fatty acid synthase; assay: FAS thioesterase domain inhibitors, dose response, biochemical, endpoint fluorescence intensity, uHTS hits (AID 624327); format: functional;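 further: fluorescence from hydrolysis of an O-methyl fluorescein acyl ester substrate by the enzyme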
Vero = assay: host cell cytotoxicity of antiviral hits, dose response, cytotoxicity control for West Nile virus antiviral project, secondary assay (AID 1650); format: functional; conditions: Chlorocebus sabaeus
[24] = biological target: Luciferin 4-monooxygenase (Photinus pyralis, UniProt P08659); assay: firefly luciferase enzyme inhibitors, dose response, biochemical, luminescence (AID 1891)
[25] = Luminescence Cell-Based Dose Confirmation HTS to Identify Inhibitors of Platelet Dense Granule Release. [Related pubchem assays: 1663 (Primary HTS), 1678 (Summary of Project)]; format: functional

T4 sequence (P49327 whole entry, the tested form may be a part): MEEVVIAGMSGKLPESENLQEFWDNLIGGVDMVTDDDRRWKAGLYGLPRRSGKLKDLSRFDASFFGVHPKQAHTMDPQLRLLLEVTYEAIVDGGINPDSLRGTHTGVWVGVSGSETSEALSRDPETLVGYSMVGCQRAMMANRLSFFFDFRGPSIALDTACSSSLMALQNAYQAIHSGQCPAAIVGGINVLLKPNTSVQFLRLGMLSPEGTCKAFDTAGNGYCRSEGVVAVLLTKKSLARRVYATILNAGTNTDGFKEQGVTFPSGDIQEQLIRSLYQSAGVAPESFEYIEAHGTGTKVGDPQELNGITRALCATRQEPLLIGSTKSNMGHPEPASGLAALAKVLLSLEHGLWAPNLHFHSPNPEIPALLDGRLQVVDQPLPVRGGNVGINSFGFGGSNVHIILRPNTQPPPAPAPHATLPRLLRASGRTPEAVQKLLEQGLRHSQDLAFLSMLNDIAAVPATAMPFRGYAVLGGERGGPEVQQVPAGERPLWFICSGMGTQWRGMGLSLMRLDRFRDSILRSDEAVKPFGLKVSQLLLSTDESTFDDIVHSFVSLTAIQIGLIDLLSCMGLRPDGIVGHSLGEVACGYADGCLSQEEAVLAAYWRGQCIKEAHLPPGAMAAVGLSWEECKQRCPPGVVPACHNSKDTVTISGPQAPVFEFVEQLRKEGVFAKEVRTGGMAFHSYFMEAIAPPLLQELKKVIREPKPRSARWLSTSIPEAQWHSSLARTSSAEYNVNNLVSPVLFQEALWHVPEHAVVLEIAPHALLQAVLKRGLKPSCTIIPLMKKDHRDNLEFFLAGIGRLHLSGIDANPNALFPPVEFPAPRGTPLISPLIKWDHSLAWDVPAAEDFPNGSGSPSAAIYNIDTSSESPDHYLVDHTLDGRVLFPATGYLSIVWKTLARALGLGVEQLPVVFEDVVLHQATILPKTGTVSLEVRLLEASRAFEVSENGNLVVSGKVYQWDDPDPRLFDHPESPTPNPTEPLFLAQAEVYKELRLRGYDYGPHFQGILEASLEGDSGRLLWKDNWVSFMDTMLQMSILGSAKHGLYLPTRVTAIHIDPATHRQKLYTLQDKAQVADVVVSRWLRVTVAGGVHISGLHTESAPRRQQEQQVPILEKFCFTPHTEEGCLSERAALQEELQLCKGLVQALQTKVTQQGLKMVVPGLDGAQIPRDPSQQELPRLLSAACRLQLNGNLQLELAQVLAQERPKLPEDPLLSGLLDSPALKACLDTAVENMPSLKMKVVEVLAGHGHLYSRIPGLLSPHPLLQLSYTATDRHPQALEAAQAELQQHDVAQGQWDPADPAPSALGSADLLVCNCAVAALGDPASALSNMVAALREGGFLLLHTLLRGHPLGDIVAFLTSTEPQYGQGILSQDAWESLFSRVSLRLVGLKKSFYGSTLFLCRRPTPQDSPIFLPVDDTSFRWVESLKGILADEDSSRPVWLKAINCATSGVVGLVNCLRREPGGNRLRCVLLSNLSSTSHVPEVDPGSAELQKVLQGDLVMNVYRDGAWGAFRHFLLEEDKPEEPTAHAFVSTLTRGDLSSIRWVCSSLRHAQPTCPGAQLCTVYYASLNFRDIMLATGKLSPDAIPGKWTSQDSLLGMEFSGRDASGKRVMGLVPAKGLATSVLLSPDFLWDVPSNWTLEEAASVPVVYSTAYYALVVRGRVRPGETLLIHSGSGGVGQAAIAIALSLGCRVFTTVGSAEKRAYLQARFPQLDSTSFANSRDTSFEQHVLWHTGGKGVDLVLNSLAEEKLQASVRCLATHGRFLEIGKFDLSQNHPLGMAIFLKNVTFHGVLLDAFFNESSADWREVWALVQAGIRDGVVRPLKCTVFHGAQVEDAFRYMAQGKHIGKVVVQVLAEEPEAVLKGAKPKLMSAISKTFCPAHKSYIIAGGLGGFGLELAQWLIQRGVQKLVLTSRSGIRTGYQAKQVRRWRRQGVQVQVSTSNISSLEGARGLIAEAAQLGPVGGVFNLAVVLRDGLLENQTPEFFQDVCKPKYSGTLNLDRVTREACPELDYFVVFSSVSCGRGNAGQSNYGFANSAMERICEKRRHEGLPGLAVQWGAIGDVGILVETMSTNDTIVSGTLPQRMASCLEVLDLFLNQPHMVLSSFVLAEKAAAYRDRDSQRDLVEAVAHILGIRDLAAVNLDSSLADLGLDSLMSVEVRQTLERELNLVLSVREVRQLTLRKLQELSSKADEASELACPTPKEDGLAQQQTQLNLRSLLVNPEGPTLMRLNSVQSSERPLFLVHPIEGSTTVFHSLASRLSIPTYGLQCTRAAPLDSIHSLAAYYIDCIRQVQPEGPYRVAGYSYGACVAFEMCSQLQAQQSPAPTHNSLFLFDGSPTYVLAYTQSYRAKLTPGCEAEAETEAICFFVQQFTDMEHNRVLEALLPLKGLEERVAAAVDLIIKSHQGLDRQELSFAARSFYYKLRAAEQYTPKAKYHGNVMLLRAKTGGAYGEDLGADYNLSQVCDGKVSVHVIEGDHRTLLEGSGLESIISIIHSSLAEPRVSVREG
Cytochrome P450 2C9, sequence (P11712 whole entry): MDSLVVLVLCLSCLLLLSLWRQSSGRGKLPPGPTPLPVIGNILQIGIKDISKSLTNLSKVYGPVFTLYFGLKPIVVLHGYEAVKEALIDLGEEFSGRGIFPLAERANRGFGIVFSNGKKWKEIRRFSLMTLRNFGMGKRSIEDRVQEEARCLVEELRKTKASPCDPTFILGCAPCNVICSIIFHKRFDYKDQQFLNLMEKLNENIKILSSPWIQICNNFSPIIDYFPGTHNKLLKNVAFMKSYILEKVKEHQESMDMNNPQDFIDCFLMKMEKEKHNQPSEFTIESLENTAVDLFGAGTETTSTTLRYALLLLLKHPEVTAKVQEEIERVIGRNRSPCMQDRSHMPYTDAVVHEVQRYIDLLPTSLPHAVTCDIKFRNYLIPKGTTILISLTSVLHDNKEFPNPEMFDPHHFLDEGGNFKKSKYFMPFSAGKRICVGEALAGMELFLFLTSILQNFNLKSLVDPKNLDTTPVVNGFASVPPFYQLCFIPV
Cytochrome P450 2C19, sequence (P33261 whole entry): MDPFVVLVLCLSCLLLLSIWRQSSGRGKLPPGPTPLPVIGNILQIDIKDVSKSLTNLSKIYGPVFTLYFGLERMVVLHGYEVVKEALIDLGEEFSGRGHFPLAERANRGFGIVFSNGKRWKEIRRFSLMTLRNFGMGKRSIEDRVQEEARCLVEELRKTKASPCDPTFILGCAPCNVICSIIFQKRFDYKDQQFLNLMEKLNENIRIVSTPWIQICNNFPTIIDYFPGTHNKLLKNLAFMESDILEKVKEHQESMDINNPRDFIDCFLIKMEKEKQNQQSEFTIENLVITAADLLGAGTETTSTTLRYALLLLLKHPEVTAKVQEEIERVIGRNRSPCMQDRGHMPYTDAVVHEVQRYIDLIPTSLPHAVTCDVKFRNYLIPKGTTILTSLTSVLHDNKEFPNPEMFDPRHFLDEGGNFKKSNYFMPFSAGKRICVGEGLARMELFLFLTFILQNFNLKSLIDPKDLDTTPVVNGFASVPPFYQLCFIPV
Luciferin 4-monooxygenase, sequence (P08659 whole entry): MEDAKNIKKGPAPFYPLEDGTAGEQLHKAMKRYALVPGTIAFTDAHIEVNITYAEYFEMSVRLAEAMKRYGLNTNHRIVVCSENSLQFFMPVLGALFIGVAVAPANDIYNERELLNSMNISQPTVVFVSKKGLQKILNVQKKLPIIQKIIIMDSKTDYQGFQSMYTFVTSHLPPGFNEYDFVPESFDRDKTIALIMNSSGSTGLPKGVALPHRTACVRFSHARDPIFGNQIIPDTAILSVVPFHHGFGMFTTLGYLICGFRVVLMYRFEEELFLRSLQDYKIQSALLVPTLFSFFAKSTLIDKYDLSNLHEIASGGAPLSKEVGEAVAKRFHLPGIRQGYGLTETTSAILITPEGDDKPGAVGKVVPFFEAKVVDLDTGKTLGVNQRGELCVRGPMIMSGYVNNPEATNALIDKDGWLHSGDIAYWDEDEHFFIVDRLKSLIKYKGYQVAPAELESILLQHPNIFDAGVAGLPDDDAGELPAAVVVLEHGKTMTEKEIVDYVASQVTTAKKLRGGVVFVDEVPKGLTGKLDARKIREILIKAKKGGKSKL
DNA dC->dU-editing enzyme APOBEC-3G, sequence (Q9HC16 whole entry): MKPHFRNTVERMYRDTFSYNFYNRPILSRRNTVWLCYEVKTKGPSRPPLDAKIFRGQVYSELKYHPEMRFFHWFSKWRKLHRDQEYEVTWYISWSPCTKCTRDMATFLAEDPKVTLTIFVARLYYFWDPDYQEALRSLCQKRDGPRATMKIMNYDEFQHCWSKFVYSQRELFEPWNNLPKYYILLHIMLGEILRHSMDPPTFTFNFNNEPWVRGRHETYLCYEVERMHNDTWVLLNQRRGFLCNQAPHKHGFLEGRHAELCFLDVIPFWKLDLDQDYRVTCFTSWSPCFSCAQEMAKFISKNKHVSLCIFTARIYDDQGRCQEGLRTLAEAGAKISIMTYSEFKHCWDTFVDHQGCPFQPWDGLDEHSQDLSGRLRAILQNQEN

## Clc1cnc(Oc2ccc(Oc3ncc(Cl)cc3Cl)cc2)c(Cl)c1
Cytochrome P450 2C9
  AC50: inconclusive
[1]
  EC50: > 53 µM (inactive)
[2]
  IC50: < 0.368 µM (active)
[3]
  IC50: 18 µM (active)

## Cc1ccc(C)c(OCCn2ccnc2)c1
[4]
  IC50: 5.06 µM (active)

## Fc1ccc(-n2cc(CNCCc3cccnc3)c(-c3ccccc3Cl)n2)cc1
[5]
  EC50: 5.96 µM (active)

## Cc1nc2ccccc2n1CC(O)COC1CCCCC1 (centres undefined)
[1]
  EC50: > 53 µM (inactive)
[2]
  IC50: 41.8 µM (active)
[3]
  IC50: 8.02 µM (active)

## O=[N+]([O-])c1ccc2nc(S)sc2c1
[1]
  EC50: 27.1 µM (active)
[2]
  IC50: 7.04 µM (active)
[3]
  IC50: > 20 µM (inactive)

## CCCc1cc(NC(=O)CCl)n(-c2ccccc2)n1
HEK293 [6]
  EC50: 14.3 µM (active)
[7]
  EC50: > 150 µM (not active)
BJ [8]
  EC50: > 150 µM (not active)
BJ [9]
  EC50: > 150 µM (not active)
HEK293 [10]
  IC50: > 20 µM (inactive)
[11]
  CC50: 17.4 µM (active)
BJ [12]
  EC50: 29.7 µM (active)
HEK293 [13]
  IC50: 4.55 µM (active)
HEK293 [14]
  IC50: 11.1 µM (inactive)

## CC(C)c1ccc(N(C(=O)c2snc(C(N)=O)c2N)C(C(=O)NC2CCCC2)c2ccncc2)cc1 (centres undefined)
cells
  EC50: > 350 µM (not active)

## CCOc1ccc(C(=S)NC2CCCCC2)cc1OCC
[15]
  IC50: 55.7 µM (active)

## CC[C@]12c3[nH]c4cc(CCC(=O)N(C)C)ccc4c3CCN1C(=O)[C@@H](CC(=O)NC/C=C(\C)CCC=C(C)C)C[C@@H]2C(=O)N1CCN(C(=O)c2ccco2)CC1
[16]
  AC50: 1.68 µM (active)
[17]
  AC50: 1.72 µM (active)

## Cc1noc(C)c1COC(=O)[C@@H](NC(=O)c1ccccc1)C(C)C
[17]
  AC50: 52.5 µM (active)

## CCOC(=O)N/N=C\c1ccc([N+](=O)[O-])o1
[18]
  EC50: > 30 µM (not active)
[19]
  EC50: > 50 µM (active)
[20]
  EC50: 0.542 µM (active)
Cytochrome P450 2C19
  AC50: 25.1 µM (inconclusive)

## Cc1cc(NC(=O)c2ccccc2)sc1C
[19]
  EC50: > 50 µM (active)

## CN1c2ccc(C#Cc3cccnc3)cc2[C@@H]2[C@@H](CCN2S(=O)(=O)c2ccccc2F)[C@@H]1CO
[21]
  AC50: 3.87 µM (active)

## Cc1cccc(C(=O)NCCC(=O)Nc2ccc(F)c([N+](=O)[O-])c2)c1
Fatty acid synthase [22]
  IC50: 9.57 µM (active)
Fatty acid synthase [23]
  IC50: 12.3 µM (active)
[19]
  EC50: > 50 µM (active)

## COC(=O)c1cc(OC)c(OC)cc1NC(=O)c1c(-c2ccccc2Cl)noc1C
[1]
  EC50: > 53 µM (inactive)
[2]
  IC50: < 0.368 µM (active)
[3]
  IC50: > 20 µM (inactive)

## Cc1cccc(C)c1NC(=O)CN(C)C(=O)c1ccc2nc[nH]c2c1
[4]
  IC50: 28 µM (active)

## COc1ccc(C(CNC(=O)COc2ccccc2OC)N(C)C)cc1OC (centres undefined)
[5]
  EC50: 1.19 µM (active)

## COCCCN(C(=O)c1cc(-c2ccco2)nc2ccccc12)c1c(N)n(Cc2ccccc2)c(=O)[nH]c1=O
[4]
  IC50: 12 µM (active)

## COc1ccc2c3c1OC1C(O)C=CC4C(C2)[N+](C)(C)CCC341 (centres undefined)
[4]
  IC50: 7 µM (active)

## COc1ccc(CCN(C)CCC(=O)Nc2c(C)cc(C)cc2C)cc1OC
[5]
  EC50: 4.73 µM (active)

## CCOC(=O)C1(Cc2cccc(F)c2)CCN(Cc2cnn(CC)c2C)CC1
[5]
  EC50: 0.211 µM (active)

## CCC(=O)N1CCC2(CC1)CN(Cc1cc(F)ccc1F)[C@@H](CO)c1[nH]c3cc(OC)ccc3c12
[21]
  AC50: 4.19 µM (active)

## O=S(=O)(CC(CN1CCCCC1)N1CCCCC1)c1ccccc1 (centres undefined)
Vero
  CC50: 14.4 µM (active)

## C/C=C/c1ccc(OCc2cc(=O)n3cc(C)ccc3n2)c(OC)c1
[24]
  EC50: > 112 µM (not active)
[19]
  EC50: > 50 µM (active)
[25]
  EC50: 58.2 µM (active)

## COc1cccc(NC2=NC(N)=NC3(CCCCC3)N2)c1
[19]
  EC50: > 50 µM (active)

## CC(CCc1ccco1)NC(=O)c1cccc2c1C(=O)N(C1CCCCC1)C2 (centres undefined)
[1]
  EC50: > 53 µM (inactive)
[2]
  IC50: < 0.368 µM (active)
[3]
  IC50: > 20 µM (inactive)

## C[C@H](CO)N1C[C@H](C)[C@H](CN(C)C(=O)Nc2ccc(-c3ccccc3)cc2)OCc2ccccc2-c2c(n(C)c3ccccc23)C1=O
[21]
  AC50: 4.77 µM (active)
